Literature values, collected in US9629360B2, “Water-based pesticidal suspension” (priority 2010, dated 2017).
In brackets after ≈: the same amount, converted by molar mass.

Conditions: 20° C.

Row | Compound | aqueous solubility
1 | Cc1nc(N(C)C)nc(OC(=O)N(C)C)c1C [pirimicarb] | 3100 µg/mL (≈ 13 mM)
2 | COP(=O)(OC)SCn1c(=O)oc2cc(Cl)cnc21 [azamethiphos] | 1100 µg/mL (≈ 3.39 mM)
